According to US20180185312A1, “METHOD AND COMPOSITION FOR PREVENTING OR TREATING IMMUNE ALLERGIC AIRWAY DISEASE” (Development Center for Biotechnology, priority 2016, published 2018):

Key:
[1] = test system: IL-9; experiment: Cytokines in nasal irrigation solution, allergic rhinitis animal model: IL-9; assay type: in vivo; conditions: BALB/c mice, in comparison with the disease group, increasing amount of SAC
Protocol: (§1) 3. All animals were sacrificed at the end of the 4th week after being given the tested material, their nasal cavities were rinsed 3 times with 1 ml of physiological saline solution, then nasal irrigation solution was collected, centrifuged at 1000 rpm for 5 minutes at 4° C. to collect the supernatant solution, then store at −80° C. for preservation.

[2] = Conversion of effective amount from mouse to human by conversion factor W; conditions: converted from the mouse amount with conversion factor W 0.11
Protocol: For example, when being administered into a mouse, an effective amount of SAC is at least approximately 25 mg/kg; more preferably, an effective amount of SAC is approximately from 25 mg/kg to 100 mg/kg. When being administered into a person, an effective amount of SAC is at least approximately 2.75 mg/kg; more preferably, an effective amount is approximately from 2.75 mg/kg to 11 mg/kg. The conversion of an effective amount from animal to animal can be easily calculated by those skilled in the art based on known knowledge. For example, when an effective amount per kg for animal A is known and an effective amount per kg for animal B is to be calculated, look up table 1 first to find the conversion factor (W), then calculate as follows: An effective amount for animal B (mg/kg)=W×an effective amount for animal A (mg/kg) For example, in one of the examples of this disclosure, an effective amount of SAC being administered into a mouse was 25 mg/kg, which needs to be converted into an effective amount for a human. Animal A is a mouse and animal B is a human, the crossing point which is the conversion factor W is 0.11, therefore an effective amount for a human is 0.11×25 mg/kg=2.75 mg/kg. [table]

[3] = test system: allergic rhinitis; experiment: Allergic rhinitis animal model: frequency of sneezing and nasal rubbing; assay type: in vivo, Mice (BALB/c)
From the text: Drug Efficacy Evaluation for Allergic Rhinitis in Animals 1. Species: Mice. 2. Strain: BALB/c. 8. Number of animals: The animals were divided into 5 groups, 4 to 5 animals per group, a total of 24 animals. [table] 1. The frequency of sneezing and nasal rubbing of the mice was observed once per week.

[4] = test system: IL-6; experiment: Cytokines in nasal irrigation solution, allergic rhinitis animal model: IL-6; assay type: in vivo; conditions: BALB/c mice, in comparison with the disease group, increasing amount of SAC
Protocol: as §1

[5] = BALB/c mice, SAC 25, 50, 100 mpk p.o. twice per day, in comparison to the disease group

C=CCSC[C@H](N)C(=O)O [SAC, S-allyl-L-Cysteine]
level of IL-9 in nasal irrigation solution [1]: decreased
effective amount for a human [2]: 2.75 mg/kg
frequency of nasal rubbing [3, 5]: tended to decline
frequency of sneezing [3, 5]: tended to decline
effective amount administered into a mouse ([3]; mouse, in one of the examples): 25 mg/kg
level of IL-6 in nasal irrigation solution [4]: decreased
